Results as given in patent US20120122870A1, “Treatment Of Ischemia-Reperfusion Injury” (MUSC FOUNDATION FOR RESEARCH DEVELOPMENT, priority 2009, published 2012).

What was measured:
[1] = tested on: endogenous SK activity in MDA-MB-231 cells; experiment: Cellular S1P production (endogenous SK activity) in MDA-MB-231 cells; type: cell-based; conditions: for inhibition at 20 µg/mL / IC50: Homo sapiens; for inhibition at 20 µg/mL: MDA-MB-231, MDA-MB-231 cells incubated with 20 μg/mL of compound; for inhibition at 20 µg/mL / Cellular S1P (% inhibition): percentage of S1P production inhibited; for IC50: MDA-MB-231 cells, varying concentrations, concentration inhibiting S1P production by 50%; for Cellular S1P (% inhibition): MDA-MB-231 cells incubated with 20 μg/mL of compound
How it was run: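 MDA-MB-231 cells treated with 20 μg/mL compound and assayed for endogenous SK activity, reported as % inhibition of S1P production. For IC50, cells received varying compound concentrations and S1P produced was measured; IC50 is the concentration giving 50% inhibition.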

recombinant human SK = target: T1, recombinant human SK (Homo sapiens, UniProt Q9NYA1); experiment: Recombinant human SK activity assay ([3H]sphingosine to [3H]S1P); type: biochemical; conditions: Human SK incubated with 6 μg/mL of compound; percentage of SK activity inhibited
T1 construct: GST (glutathione-S-transferase) (N); made in house; host or cells: bacteria (pGEX bacterial expression vector)
T1 sequence (Q9NYA1 whole entry): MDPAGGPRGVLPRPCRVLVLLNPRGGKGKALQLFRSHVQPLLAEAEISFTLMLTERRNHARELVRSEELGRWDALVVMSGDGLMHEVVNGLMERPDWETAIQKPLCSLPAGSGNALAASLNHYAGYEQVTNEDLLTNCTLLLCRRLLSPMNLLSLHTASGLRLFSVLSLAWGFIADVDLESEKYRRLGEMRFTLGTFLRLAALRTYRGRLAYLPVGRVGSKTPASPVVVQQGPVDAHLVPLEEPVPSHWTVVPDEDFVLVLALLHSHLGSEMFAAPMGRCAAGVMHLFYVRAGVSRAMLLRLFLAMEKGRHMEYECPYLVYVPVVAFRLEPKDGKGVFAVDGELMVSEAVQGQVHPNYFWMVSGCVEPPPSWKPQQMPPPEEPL

Structure (SMILES): O=C(NCc1ccncc1)C12CC3CC(C1)CC(c1ccc(Cl)cc1)(C3)C2 [A62, 3-(4-Chloro-phenyl)-adamantane-1-carboxylic acid (pyridin-4-ylmethyl)-amide]
- inhibition at 20 µg/mL [1]: 92%
- IC50 [1]: 26 µM
- inhibition at 6 µg/mL (recombinant human SK): 13%

Structure (SMILES): O=C(NCc1ccncc1)C12CC3CC(CC(C3)C1)C2 [A63, Adamantane-1-carboxylic acid (pyridin-4-ylmethyl)-amide]
- Cellular S1P (% inhibition) [1]: 39%
- Recombinant SK (% inhibition) (recombinant human SK): 0%

Structure (SMILES): O=C(NCCc1ccncc1)C12CC3CC(C1)CC(c1ccc(Cl)cc1)(C3)C2 [A64, 3-(4-Chloro-phenyl)-adamantane-1-carboxylic acid (2-pyridin-4-yl-ethyl)-amide]
- inhibition at 20 µg/mL [1]: 80%
- IC50 [1]: 63 µM
- inhibition at 6 µg/mL (recombinant human SK): 41%

Structure (SMILES): Cc1cc2cc(NC(=O)C34CC5CC(C3)CC(c3ccc(Cl)cc3)(C5)C4)ccc2[nH]1 [A66, 3-(4-Chloro-phenyl)-adamantane-1-carboxylic acid (2-methyl-1H-indol-5-yl)-amide]
- inhibition at 20 µg/mL [1]: 8%
- inhibition at 6 µg/mL (recombinant human SK): 92%

Structure (SMILES): CCn1c2ccccc2c2cc(NC(=O)C34CC5CC(C3)CC(c3ccc(Cl)cc3)(C5)C4)ccc21 [A68, 3-(4-Chloro-phenyl)-adamantane-1-carboxylic acid (9-ethyl-9H-carbazol-3-yl)-amide]
- inhibition at 20 µg/mL [1]: 0%
- inhibition at 6 µg/mL (recombinant human SK): 17%

Structure (SMILES): O=C(Nc1nc(-c2ccc(Cl)cc2)cs1)C12CC3CC(CC(C3)C1)C2 [A69, Adamantane-1-carboxylic acid [4-(4-chloro-phenyl)-thiazol-2-yl]-amide]
- inhibition at 20 µg/mL [1]: 13%
- inhibition at 6 µg/mL (recombinant human SK): 40%

Structure (SMILES): O=C(Nc1nc(-c2ccc(Cl)cc2)cs1)C12CC3CC(C1)CC(c1ccc(Cl)cc1)(C3)C2 [A70, 3-(4-Chloro-phenyl)-adamantane-1-carboxylic acid [4-(4-chloro-phenyl)-thiazol-2-yl]-amide]
- inhibition at 20 µg/mL [1]: 4%
- inhibition at 6 µg/mL (recombinant human SK): 33%

Structure (SMILES): O=C(Nc1nc2ccccc2s1)C12CC3CC(C1)CC(c1ccc(Cl)cc1)(C3)C2 [A71, 3-(4-Chloro-phenyl)-adamantane-1-carboxylic acid benzothiazol-2-ylamide]
- inhibition at 20 µg/mL [1]: 0%
- inhibition at 6 µg/mL (recombinant human SK): 27%

Structure (SMILES): O=C(Nc1nc2cc(Cl)ccc2o1)C12CC3CC(C1)CC(c1ccc(Cl)cc1)(C3)C2 [A72, 3-(4-Chloro-phenyl)-adamantane-1-carboxylic acid (5-chloro-benzooxazol-2-yl)-amide]
- inhibition at 20 µg/mL [1]: 1%
- inhibition at 6 µg/mL (recombinant human SK): 14%

Structure (SMILES): CN1CCN(NCC23CC4CC(C2)CC(c2ccc(Cl)cc2)(C4)C3)CC1 [A83, [3-(4-Chloro-phenyl)-adamantan-1-ylmethyl]-(4-methyl-piperazin-1-yl)-amine]
- inhibition at 20 µg/mL [1]: 88%
- IC50 [1]: 16 µM
- inhibition at 6 µg/mL (recombinant human SK): 60%

Structure (SMILES): Clc1ccc(C23CC4CC(CC(CNCCN5CCOCC5)(C4)C2)C3)cc1 [A87, [3-(4-Chloro-phenyl)-adamantan-1-ylmethyl]-(2-morpholin-4-yl-ethyl)-amine]
- inhibition at 20 µg/mL [1]: 55%
- IC50 [1]: 64 µM
- inhibition at 6 µg/mL (recombinant human SK): 75%

Structure (SMILES): CCn1c2ccccc2c2cc(NCC34CC5CC(C3)CC(c3ccc(Cl)cc3)(C5)C4)ccc21 [A89, [3-(4-Chloro-phenyl)-admantan-1-ylmethyl]-(9-ethyl-9H-carbazol-3-yl)-amine]
- Cellular S1P (% inhibition) [1]: 1%
- Recombinant SK (% inhibition) (recombinant human SK): 37%

Structure (SMILES): Clc1ccc(-c2cnc(NCC34CC5CC(C3)CC(c3ccc(Cl)cc3)(C5)C4)s2)cc1 [A90, [3-(4-Chloro-phenyl)-adamantan-1-ylmethyl]-[5-(4-chloro-phenyl)-thiazol-2-yl]-amine]
- inhibition at 20 µg/mL [1]: 16%
- inhibition at 6 µg/mL (recombinant human SK): 26%

Structure (SMILES): CCn1c2ccccc2c2cc(NC(C)C34CC5CC(CC(c6ccc(Cl)cc6)(C5)C3)C4)ccc21 (stereo not shown) [A114, {1-[3-(4-Chloro-phenyl)-adamantan-1-yl]-ethyl}-(9-ethyl-9H-carbazol-3-yl)-amine]
- inhibition at 20 µg/mL [1]: 46%
- IC50 [1]: 51 µM
- inhibition at 6 µg/mL (recombinant human SK): 33%

Structure (SMILES): CC(NC(=O)Nc1ccc(Cl)c(C(F)(F)F)c1)C12CC3CC(CC(c4ccc(Cl)cc4)(C3)C1)C2 (stereo not shown) [A118, 1-{1-[3-(4-Chloro-phenyl)-adamantan-1-yl]-ethyl}-3-(4-chloro-3-trifluoromethyl-phenyl)-urea]
- inhibition at 20 µg/mL [1]: 5%
- inhibition at 6 µg/mL (recombinant human SK): 77%

Structure (SMILES): CCCCCCCCCCCCCCCC(=O)Nc1nc(-c2ccc(Cl)cc2)cs1 [B3, Hexadecanoic acid [4-(4-chloro-phnyl)-thiazol-2-yl]-amide]
- Cellular S1P (% inhibition) [1]: 34%
- Recombinant SK (% inhibition) (recombinant human SK): 88%
